Measured values from US20240166593A1, “LIPIDS SUITABLE FOR NUCLEIC ACID DELIVERY” (RAMOT AT TEL-AVIV UNIVERSITY LTD., priority 2021, published 2024).
Several values for one entry are separate records, joined by “and”; a condition that tells them apart may be missing. Equal values may be shown once.

Experiments:
[1] = Physico-chemical characterization of LNPs made of different ionizable lipids (DLS, zeta potential); assay type: physicochemical
Protocol: Various LNPs comprising different ionizable lipid were prepared by using microfluidic micro mixture (Precision NanoSystems, Vancouver, BC) device. Briefly, one volume of lipid mixtures (ionizable lipid, DSPC, Cholesterol and DMG-PEG at 30:18:49.5:2.5 mole ratios) in ethanol and three volumes of mRNA containing acetate buffer solutions were mixed through the micromixer at a combined flow rate of 12 mL/min. The resultant mixture was dialyzed against PBS (pH 7.4) for 16 hours to remove ethanol.
The prepared LNPs comprising different ionizable lipids were characterized using transmission electron microscopy (TEM) analysis (FIGS. 10A-10G), dynamic light scattering (DLS) and zeta potential measurements. Table 1 represents the measured hydrodynamic diameter (Z-ave; d.nm), polydispersity index (PDI) and zeta potential (mV) of various LNPs. The resultant LNPs were spherical and uniformly distributed with a hydrodynamic diameter size of ˜50-260 nm, depending on the ionizable lipid used. Additionally, LNP surface potentials were negative.
In addition, DSL1-3 LNPs comprising different amounts of PEG (1.5 mol % or 2.5 mol %) were compared for bio-distribution. Mice treated and sacrificed; organs prepared for luciferase expression analysis as detailed above. […] Next, as shown in FIGS. 11M-11P, mRNA-LNPs composed of DSL1-4, 1-5, 2-2 or 2-50 lipids were compared to DSPC or DOPE as co-lipids. […] Tables 2-5 detail the physio-chemical properties of LNPs made of either DOPE or DSPC (the measured hydrodynamic diameter (Z-ave; d.nm), polydispersity index (PDI)).

luciferase expression [2] = assay: In-vivo delivery of mRNA encoding luciferase using LNPs (IVIS of organs); set-up: species or system Mice; conditions: for bio-distribution of LNPs (luciferase expression by IVIS): mLUC-LNPs IV 0.5 mg/kg, 7 hr post administration, lung, liver, spleen, kidney; for luciferase activity of LNPs with DOPE as co-lipid compared to DSPC containing LNPs: mRNA-LNPs in mice; for bio-distribution on increasing ionizable lipid mole ratio (40% vs 30%): mRNA-LNPs IV
[3] = test system: CD11c positive splenic dendritic cells; assay: mCRE-LNPs in Ai9 mice, FACS for tdTomato expression; assay type: in vivo; conditions: mCRE-LNPs IV 0.5 mg/kg, 72 hr post administration
Protocol: (§1) Ai9 mice that express robust tdTomato fluorescence following cre-mediated recombination were injected intravenously with the various mCRE-LNPs at 0.5 mg/kg dose. Mice were sacrificed 72 hr post administration and peritoneal macrophages and spleenocytes were isolated and analyzed by FACS for tdTomato expression (FIGS. 13 and 14).

peritoneal macrophages = assay: as above; assay type: in vivo; conditions: mCRE-LNPs IV 0.5 mg/kg, 72 hr post administration
Protocol: as §1

mice = assay: In vivo safety analysis of mRNA-LNPs (serum liver enzymes); conditions: mRNA-LNPs IV; serum after 2 hr and 24 hr; compared to untreated mice
Protocol: After 2 hr and 24 hr blood was collected and serum samples were analyzed for levels of the liver enzymes alkaline phosphatase (Alk Phos), serum glutamic-oxaloacetic transaminase (SGOT) or serum glutamic pyruvic transaminase (SGPT).
Safety is an important limitation for clinical development of LNPs. Therefore, mRNA-LNPs system made of DSL2-50 and DSL1-3 lipids were tested and evaluated for the toxicity in mice.

[4] = Stability of mRNA-LNPs stored at 2-8° C. (size, PDI); assay type: physicochemical
luciferase expression [5] = assay: Luciferase expression in mouse organs after storage of mRNA-LNPs (IVIS); assay type: in vivo, mice; conditions: mLuc LNPs stored 210 days at 2-8° C.
[6] = test system: Luciferase and mCherry expression; assay: Delivery of two types of mRNA encapsulated in a single LNP (IVIS of livers); assay type: in vivo; conditions: mice livers; compared to SM102-LNPs
SARS-CoV-2 = conditions: IM day 0 and booster day 21, serum 3 weeks after booster; BALB/c and C57BL6 mice
Protocol: To evaluate the efficiency of our LNP system for vaccine delivery, mRNA against human Fc conjugated RBD (RBD-hFc mRNA) was chosen. LNPs encapsulated RBD-mRNA administered IM in to BALB/c mice (FIG. 19) and C57BL6 mice (FIG. 20) on day ‘0’ and a booster dose on day ‘21’. Serum was collected on day ‘21’ (pre boost) and 3 weeks after the booster dose (post boost) and analyzed for humoral response. […] The cellular response (SARS-CoV-2 specific T-cell response) was measured by ELISPOT assay for IFN-γ response.

tdTomato expression = assay: Biodistribution of DSL1-2 LNPs compared to Dlin-MC3-DMA LNPs (IVIS of spleen and liver); assay type: in vivo, Ai9 mice; conditions: mCRE-LNPs IV 0.5 mg/kg, 72 hr post administration
Protocol: Ai9 mice that express robust tdTomato fluorescence following cre-mediated recombination were injected intravenously with either Dlin-MC3-DMA or DSL1-2 mCRE-LNPs at 0.5 mg/kg dose. Mice were sacrificed 72 hr post administration followed by spleen and liver isolation and analyzed by IVIS for tdTomato expression.

[7] = mRNA LNPs: ionizable lipid, DSPC, Cholesterol, DMG-PEG 30:18:49.5:2.5 mole ratio

Row | Structure (SMILES) | PDI (polydispersity index) [1, 7] | Z-ave (hydrodynamic diameter) [1, 7] | Zeta (zeta potential) [1, 7] | bio-distribution of LNPs (luciferase expression by IVIS) (luciferase expression [2]) | other results
1 | CCCCC/C=C\C/C=C\CCCCCCCCN(CCO)CCCCCCCCCCOC(=O)CCCCCCCCCN(CCO)CCCCCCCC/C=C\C/C=C\CCCCC [DSL1-1] | 0.23 | 187.3 nm·days | −6.37 mV | distributed to both liver and spleen | uptake by CD11c positive splenic dendritic cells (tdTomato expression) [3]: ~3%; peritoneal macrophages expressing tdTomato (peritoneal macrophages): ~60%
2 | CCCCC/C=C\C/C=C\CCCCCCCCN(CCO)CCCCCCCCCCOC(=O)CCCCCCCCCN(CCO)CCCCCCCCCCCC [DSL1-2] | 0.17 | 197.2 nm·days | −7.52 mV |  | uptake by CD11c positive splenic dendritic cells (tdTomato expression) [3]: ~12%; peritoneal macrophages expressing tdTomato (peritoneal macrophages): about 90%
3 | CCCCC/C=C\C/C=C\CCCCCCCCN(CCO)CCCCCCCCCCCOC(=O)CCCCCCCCCN(O)CCCCCCCCCCCC [DSL1-3] | 0.17 | 164.8 nm·days | −3.90 mV | preferentially taken up by spleen | LNP distribution and expression, 1.5 mol % vs 2.5 mol % PEG (luciferase expression [2]; mLUC-LNPs IV, two formulations compared): no significant different observed; uptake by CD11c positive splenic dendritic cells (tdTomato expression) [3]: ~18%; peritoneal macrophages expressing tdTomato (peritoneal macrophages): ~20%; toxicity (levels of liver enzymes Alk Phos, SGOT, SGPT) (mice): not toxic
4 | CCCCCCCCCCCCN(CCO)CCCCCCCCCCOC(=O)CCCCCCCCCN(CCO)CCCCCCCCCCCC [DSL1-4] | 0.13 | 188.7 nm·days | −1.43 mV | preferentially taken up by spleen | PDI ([1]; LNPs with DOPE as co-lipid): 0.1; Z-ave (hydrodynamic diameter) ([1]; LNPs with DOPE as co-lipid): 92.3 nm·days; PDI ([1]; LNPs with DSPC as co-lipid): 0.15; Z-ave (hydrodynamic diameter) ([1]; LNPs with DSPC as co-lipid): 190.9 nm·days; luciferase activity of LNPs with DOPE as co-lipid compared to DSPC containing LNPs (luciferase expression [2]; IVIS): loses its luciferase activity
5 | CCCCCCCCCCCCN(CCO)CCCCCCCCCC(=O)OCCOC(=O)CCCCCCCCCN(CCO)CCCCCCCCCCCC [DSL1-5] |  |  |  | preferentially taken up by spleen | bio-distribution on increasing ionizable lipid mole ratio (40% vs 30%) (luciferase expression [2]): altering the bio-distribution from the spleen to the liver
6 | CCCCC/C=C\C/C=C\CCCCCCCCN(CCO)CCCCCCCCCC(=O)ON(CCCCCCCCCCCC)CCCCCCCCCCCC [DSL2-1] | 0.24 | 49.2 nm·days | −6.97 mV | mostly taken-up by the liver | 
7 | CCCCCCCCCCCCN(CCO)CCCCCCCCCC(=O)ON(CCCCCCCCCCCC)CCCCCCCCCCCC [DSL2-2] | 0.23 | 50.8 nm·days | −5.31 mV | mostly taken-up by the liver | Z-ave (hydrodynamic diameter) ([1]; LNPs with DOPE as co-lipid): 72.5 nm·days and 88.5 nm·days; Z-ave (hydrodynamic diameter) ([1]; LNPs with DSPC as co-lipid): 50.8 nm·days and 80.3 nm·days; luciferase activity of LNPs with DOPE as co-lipid compared to DSPC containing LNPs (luciferase expression [2]; IVIS): enhanced luciferase activity observed in the liver
8 | CCCCCCN(CCCCCC)OC(=O)CCCCCCCCCN(CCO)CCCCCCCCCC(=O)ON(CCCCCC)CCCCCC [DSL2-49] | 0.07 | 63.9 nm·days | −5.65 mV |  | 
9 | CCCCCCN(CCCCCC)CCOC(=O)CCCCCCCCCN(CCO)CCCCCCCCCC(=O)OCCN(CCCCCC)CCCCCC [DSL2-50] | 0.04 | 80.3 nm·days | −2.68 mV |  | bio-distribution on increasing ionizable lipid mole ratio (40% vs 30%) (luciferase expression [2]): no significant changes in bio-distribution; luciferase activity of LNPs with DOPE as co-lipid compared to DSPC containing LNPs (luciferase expression [2]; IVIS): enhanced luciferase activity observed in the liver; LNP bio-distribution, intramuscular (IM) administration (luciferase expression [2]; mRNA-LNPs, IVIS): also reaching the liver apart from the injection site of the muscle; LNP bio-distribution, intravenous (IV) administration (luciferase expression [2]; mRNA-LNPs, IVIS): distributing to the liver; time over which LNPs are stable ([4]; mCherry LNPs stored at 2-8° C.): ≥ 3 months; size of the LNPs compared to freshly prepared LNPs ([4]; mCherry LNPs, after 3 months at 2-8° C.): slightly increased; time over which LNPs are stable ([4]; mLuc LNPs stored at 2-8° C.): ≥ 7 months; size and distribution of the LNPs compared to freshly prepared LNPs ([4]; mLuc LNPs, 210 days (7 months) at 2-8° C.): did not change; luciferase activity in the liver after storage (luciferase expression [5]): retain its luciferase activity in the liver; toxicity (levels of liver enzymes Alk Phos, SGOT, SGPT) (mice): not toxic; amount of Luciferase and mCherry expression [6]: high; post boost antibody response against SARS-CoV-2 (SARS-CoV-2): robust antibody response
10 | CCCCC/C=C\C/C=C\CCCCCCCCN(CCO)CCCCCCCCCCOC(=O)CCCCCCCCCN(CCO)CCCCCCCCCC(=O)OCCCCCCCCCCN(CCO)CCCCCCCC/C=C\C/C=C\CCCCC [DSL3c-1] | 0.45 | 261.9 nm·days | −2.68 mV | distributed to both liver and spleen | 
11 | CCCCCCCCCCCCN(CCCCCCCCCCCC)CC(=O)ON(CCCCCCCCCCCC)CCCCCCCCCCCC [DSL4-2] | 0.64 | 72.4 nm·days | −5.00 mV | no effect | 
12 | CCCCC/C=C\C/C=C\CCCCCCCCC(CCCCCCCC/C=C\C/C=C\CCCCC)OC(=O)CCCN(C)C [Dlin-MC3-DMA] |  |  |  |  | organ of accumulation (tdTomato expression, IVIS) (tdTomato expression): accumulated in the liver
